Experimental data from patent publication US4757080A, “1,4-dihydropyridine derivatives” (Heumann Pharma GmbH & Co., priority 1986, dated 1988).

Key:
[1] = biological target: T1, isolated guineapig's ileum (Cavia porcellus); experiment: calcium antagonistic activity on isolated guineapig's ileum stimulated with barium chloride; details: read-out: pA2-value (BaCl2) (converted)
T1 construct: isolated guineapig's ileum; from tissue; host or cells: isolated guinea pig ileum

H2-receptor = biological target: T2, H2-receptor (Cavia porcellus, UniProt P47747); experiment: H2 agonistic activity (pD2-values), method of J. M. van Rossum, cumulative dose-response curves in isolated organs
T2 construct: Technique for the making of dose-response curves in isolated organs; from tissue
From the text: Technique for the making of dose-response curves in isolated organs and the evaluation of drug parameters, Arch. Intern. Pharmacodyn. Therap.

[2] = system: arterial resistance, coronary dilatation, activity of the heart; details: in words, background, cited from earlier work

T1 sequence (O35505 whole entry): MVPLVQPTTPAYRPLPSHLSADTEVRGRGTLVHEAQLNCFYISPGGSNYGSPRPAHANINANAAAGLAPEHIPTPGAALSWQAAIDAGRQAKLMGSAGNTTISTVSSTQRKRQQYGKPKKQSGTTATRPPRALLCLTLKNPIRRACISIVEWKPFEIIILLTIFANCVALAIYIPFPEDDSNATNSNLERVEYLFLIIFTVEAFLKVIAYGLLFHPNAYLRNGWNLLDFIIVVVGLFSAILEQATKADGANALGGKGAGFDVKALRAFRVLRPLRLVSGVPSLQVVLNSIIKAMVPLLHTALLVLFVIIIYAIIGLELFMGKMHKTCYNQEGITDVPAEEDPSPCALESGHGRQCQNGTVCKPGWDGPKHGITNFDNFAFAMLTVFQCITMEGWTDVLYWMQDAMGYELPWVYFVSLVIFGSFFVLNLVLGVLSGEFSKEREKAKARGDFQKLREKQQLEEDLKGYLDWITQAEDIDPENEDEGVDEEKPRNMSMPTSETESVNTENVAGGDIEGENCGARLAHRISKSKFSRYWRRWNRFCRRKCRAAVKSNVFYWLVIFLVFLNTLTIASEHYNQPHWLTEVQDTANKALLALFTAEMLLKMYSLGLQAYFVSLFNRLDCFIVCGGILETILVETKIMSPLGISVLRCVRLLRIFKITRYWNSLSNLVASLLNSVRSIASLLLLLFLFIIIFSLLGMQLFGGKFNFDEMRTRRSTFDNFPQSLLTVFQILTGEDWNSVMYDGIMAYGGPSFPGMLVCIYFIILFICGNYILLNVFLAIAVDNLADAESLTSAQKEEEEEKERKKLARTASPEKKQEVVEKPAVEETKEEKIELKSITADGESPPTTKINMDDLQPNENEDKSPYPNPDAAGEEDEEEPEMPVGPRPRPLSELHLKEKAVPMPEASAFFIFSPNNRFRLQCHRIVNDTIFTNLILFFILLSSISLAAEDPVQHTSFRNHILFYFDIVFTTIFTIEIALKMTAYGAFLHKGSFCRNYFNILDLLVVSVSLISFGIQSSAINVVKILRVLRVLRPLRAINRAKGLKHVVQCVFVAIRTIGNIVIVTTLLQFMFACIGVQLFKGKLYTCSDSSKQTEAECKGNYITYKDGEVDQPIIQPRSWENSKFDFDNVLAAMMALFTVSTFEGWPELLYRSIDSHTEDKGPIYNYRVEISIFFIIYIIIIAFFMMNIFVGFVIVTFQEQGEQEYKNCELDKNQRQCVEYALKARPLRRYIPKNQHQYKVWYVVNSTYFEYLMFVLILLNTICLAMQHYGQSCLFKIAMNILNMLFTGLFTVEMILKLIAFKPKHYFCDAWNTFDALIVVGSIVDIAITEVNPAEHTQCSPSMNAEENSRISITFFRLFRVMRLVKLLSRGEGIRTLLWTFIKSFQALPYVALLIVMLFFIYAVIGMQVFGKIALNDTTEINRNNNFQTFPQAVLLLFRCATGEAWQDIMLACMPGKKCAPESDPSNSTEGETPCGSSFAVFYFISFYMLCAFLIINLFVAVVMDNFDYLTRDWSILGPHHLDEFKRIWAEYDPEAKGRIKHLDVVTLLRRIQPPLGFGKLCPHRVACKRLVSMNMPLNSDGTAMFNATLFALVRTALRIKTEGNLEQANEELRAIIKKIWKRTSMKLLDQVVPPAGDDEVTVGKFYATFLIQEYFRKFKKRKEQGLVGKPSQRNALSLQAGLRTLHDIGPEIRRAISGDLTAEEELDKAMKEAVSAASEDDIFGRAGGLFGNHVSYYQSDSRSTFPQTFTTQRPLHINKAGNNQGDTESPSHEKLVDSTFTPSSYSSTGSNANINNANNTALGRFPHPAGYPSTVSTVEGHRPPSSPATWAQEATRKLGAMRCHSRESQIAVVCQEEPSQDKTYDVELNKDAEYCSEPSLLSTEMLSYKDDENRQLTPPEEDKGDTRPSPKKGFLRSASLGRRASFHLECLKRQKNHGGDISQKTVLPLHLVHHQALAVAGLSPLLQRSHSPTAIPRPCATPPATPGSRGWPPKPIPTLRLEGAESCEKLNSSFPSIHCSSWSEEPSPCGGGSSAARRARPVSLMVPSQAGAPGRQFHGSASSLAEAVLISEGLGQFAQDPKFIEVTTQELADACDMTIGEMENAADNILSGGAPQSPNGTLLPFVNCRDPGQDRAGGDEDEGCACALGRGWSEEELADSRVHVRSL
T2 sequence (P47747 whole entry): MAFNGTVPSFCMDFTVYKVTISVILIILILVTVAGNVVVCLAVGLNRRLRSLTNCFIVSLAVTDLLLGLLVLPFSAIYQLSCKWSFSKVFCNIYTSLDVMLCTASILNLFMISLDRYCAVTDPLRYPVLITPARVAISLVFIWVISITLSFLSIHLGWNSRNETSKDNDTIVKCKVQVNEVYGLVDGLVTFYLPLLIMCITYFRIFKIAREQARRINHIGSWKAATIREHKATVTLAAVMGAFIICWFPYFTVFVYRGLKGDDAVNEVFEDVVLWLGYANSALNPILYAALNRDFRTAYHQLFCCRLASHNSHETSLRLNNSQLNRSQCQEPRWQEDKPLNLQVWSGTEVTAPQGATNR

SMILES | Kb [1] | EC50 (H2-receptor) | arterial resistance [2] | coronary dilatory effect [2] | inhibition of the activity of the heart ([2]; therapeutic doses)
COC(=O)C1=C(C)NC(C)=C(C(=O)OCCNC(=N)NCCCc2c[nH]cn2)C1c1cccc(Cl)c1Cl (stereo not shown) [Example 8, N^1-[2-[1,4-Dihydro-2,6-dimethyl-3-methoxycarbonyl-4-(2,3-dichlorophenyl)-pyridine-5-carboxy]ethyl]-N^2-[3-(1H-imidazol-4-yl)propyl]-guanidine hydriodide] | 30.2 nM | 331 nM |  |  | 
COC(=O)C1=C(C)NC(C)=C(C(=O)OC)C1c1ccccc1[N+](=O)[O-] [Nifedipine, 1,4-dihydro-2,6-dimethyl-4-(2-nitrophenyl)-3,5-pyridine carboxylic acid dimethyl ester] |  |  | lowers the arterial resistance | very marked coronary dilatory effect | without inhibiting the activity of the heart
Cc1[nH]cnc1CSCCNC(=N)NCCCc1c[nH]cn1 [Impromidine, reference compound] |  | 21.4 nM |  |  | 

Now from value to compound, other results behind:

Kb [1] | EC50 (H2-receptor) | SMILES | arterial resistance [2] | coronary dilatory effect [2] | inhibition of the activity of the heart ([2]; therapeutic doses)
110 nM | 38.9 nM | COC(=O)C1=C(C)NC(C)=C(C(=O)OCCCCCCNC(=N)NCCCc2c[nH]cn2)C1c1cccc([N+](=O)[O-])c1 (stereo not shown) [Example 7, N^1-[6[1,4-dihydro-2,6-dimethyl-3-methoxycarbonyl-4-(3-nitrophenyl)-pyridine-5-carboxy]hexyl]-N^2 [3-(1H-imidazol-4-yl)propyl]-guanidine hydriodide] |  |  | 
38 nM | 47.9 nM | COC(=O)C1=C(C)NC(C)=C(C(=O)OCCNC(=N)NCCCc2c[nH]cn2)C1c1ccccc1[N+](=O)[O-] (stereo not shown) [Example 1, N^1-[2-[1,4-Dihydro-2,6-dimethyl-3-methoxycarbonyl-4-(2-nitrophenyl)-pyridine-5-carboxy]ethyl]-N^2-[3-(1H-imidazol-4-yl)propyl]-guanidine-hydriodide] |  |  | 
